# Like-named read-outs stand apart in the source and are kept apart here.
# Key:
# [1] = Tissue concentration partitioning (plasma, mesenteric lymph node, fat) after single oral dose in Maisine, LC-MS/MS; format: in vivo; conditions: mice, single oral 10 mg in Maisine; for Kp at 4 h: 4 hour time point; for concentration at 4 h: 4 hours post-dosing
# Source text: Inhibitor compounds were synthesized to discover the underlying parameters needed in the development of chemical modifiers compatible with attachment to drug molecules to provide a drug having the physiochemical characteristics needed for uptake into the lymphatic system. […] This excipient vehicle contains long chain fatty acids and is used for hydrophobic compound solubilization.
# Results were quantified using LC-MS/MS for plasma, mesenteric lymph node (LN) and mesenteric fat tissues.
# PI3Kδ = PI3Kδ (Homo sapiens, UniProt O00329); experiment: In vitro inhibition of PI3Kδ; format: biochemical
# Chain of PI3Kδ (O00329 whole entry, species assumed): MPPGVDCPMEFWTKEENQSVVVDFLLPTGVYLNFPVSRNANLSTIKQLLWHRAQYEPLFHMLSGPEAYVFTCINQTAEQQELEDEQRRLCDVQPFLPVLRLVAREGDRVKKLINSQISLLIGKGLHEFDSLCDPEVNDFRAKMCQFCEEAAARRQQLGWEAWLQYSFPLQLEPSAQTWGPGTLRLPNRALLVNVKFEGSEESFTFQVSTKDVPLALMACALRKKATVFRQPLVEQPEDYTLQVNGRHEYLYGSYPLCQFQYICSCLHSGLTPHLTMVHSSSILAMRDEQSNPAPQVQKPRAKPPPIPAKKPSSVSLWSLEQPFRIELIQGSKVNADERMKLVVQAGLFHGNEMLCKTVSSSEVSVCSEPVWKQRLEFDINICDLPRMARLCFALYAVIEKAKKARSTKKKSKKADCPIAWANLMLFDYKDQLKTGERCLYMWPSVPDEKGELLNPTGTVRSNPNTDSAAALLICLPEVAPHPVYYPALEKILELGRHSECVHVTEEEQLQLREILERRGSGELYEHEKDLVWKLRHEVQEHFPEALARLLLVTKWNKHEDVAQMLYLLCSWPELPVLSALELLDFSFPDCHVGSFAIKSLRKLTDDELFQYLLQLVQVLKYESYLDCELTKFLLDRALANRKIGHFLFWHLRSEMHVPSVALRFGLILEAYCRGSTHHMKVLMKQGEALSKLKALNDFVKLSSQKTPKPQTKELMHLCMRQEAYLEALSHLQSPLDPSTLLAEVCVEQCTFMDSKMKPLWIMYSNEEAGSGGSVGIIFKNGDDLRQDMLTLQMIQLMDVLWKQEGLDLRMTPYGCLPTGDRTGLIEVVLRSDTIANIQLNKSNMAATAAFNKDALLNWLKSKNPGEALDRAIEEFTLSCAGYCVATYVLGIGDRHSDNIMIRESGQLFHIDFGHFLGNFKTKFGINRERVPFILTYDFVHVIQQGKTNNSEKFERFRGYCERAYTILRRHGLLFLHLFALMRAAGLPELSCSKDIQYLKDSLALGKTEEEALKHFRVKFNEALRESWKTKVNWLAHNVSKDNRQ
# Chain of PI3Kδ (P27986 whole entry partner, species assumed): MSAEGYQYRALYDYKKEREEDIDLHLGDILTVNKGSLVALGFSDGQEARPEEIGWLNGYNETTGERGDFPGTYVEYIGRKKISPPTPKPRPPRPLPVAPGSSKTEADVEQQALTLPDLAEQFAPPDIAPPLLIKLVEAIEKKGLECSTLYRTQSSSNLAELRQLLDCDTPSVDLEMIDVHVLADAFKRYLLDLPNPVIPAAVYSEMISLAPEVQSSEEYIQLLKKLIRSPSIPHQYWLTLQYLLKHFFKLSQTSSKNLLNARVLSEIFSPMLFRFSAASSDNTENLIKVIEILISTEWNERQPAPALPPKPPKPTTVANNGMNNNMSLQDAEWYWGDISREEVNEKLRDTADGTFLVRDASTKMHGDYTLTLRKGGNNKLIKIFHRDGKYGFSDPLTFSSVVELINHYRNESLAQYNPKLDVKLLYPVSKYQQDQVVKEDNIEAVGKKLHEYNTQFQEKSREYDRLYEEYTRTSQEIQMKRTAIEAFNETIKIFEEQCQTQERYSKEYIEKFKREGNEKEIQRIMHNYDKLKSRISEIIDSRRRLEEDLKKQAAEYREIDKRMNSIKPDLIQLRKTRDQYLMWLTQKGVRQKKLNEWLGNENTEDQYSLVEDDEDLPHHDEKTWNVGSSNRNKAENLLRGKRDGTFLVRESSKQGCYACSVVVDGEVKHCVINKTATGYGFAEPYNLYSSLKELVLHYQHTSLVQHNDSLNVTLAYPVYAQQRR
# PI3Kα = PI3Kα (Homo sapiens, UniProt P42336); experiment: In vitro inhibition of PI3Kα; format: biochemical
# Chain of PI3Kα (P42336 whole entry, species assumed): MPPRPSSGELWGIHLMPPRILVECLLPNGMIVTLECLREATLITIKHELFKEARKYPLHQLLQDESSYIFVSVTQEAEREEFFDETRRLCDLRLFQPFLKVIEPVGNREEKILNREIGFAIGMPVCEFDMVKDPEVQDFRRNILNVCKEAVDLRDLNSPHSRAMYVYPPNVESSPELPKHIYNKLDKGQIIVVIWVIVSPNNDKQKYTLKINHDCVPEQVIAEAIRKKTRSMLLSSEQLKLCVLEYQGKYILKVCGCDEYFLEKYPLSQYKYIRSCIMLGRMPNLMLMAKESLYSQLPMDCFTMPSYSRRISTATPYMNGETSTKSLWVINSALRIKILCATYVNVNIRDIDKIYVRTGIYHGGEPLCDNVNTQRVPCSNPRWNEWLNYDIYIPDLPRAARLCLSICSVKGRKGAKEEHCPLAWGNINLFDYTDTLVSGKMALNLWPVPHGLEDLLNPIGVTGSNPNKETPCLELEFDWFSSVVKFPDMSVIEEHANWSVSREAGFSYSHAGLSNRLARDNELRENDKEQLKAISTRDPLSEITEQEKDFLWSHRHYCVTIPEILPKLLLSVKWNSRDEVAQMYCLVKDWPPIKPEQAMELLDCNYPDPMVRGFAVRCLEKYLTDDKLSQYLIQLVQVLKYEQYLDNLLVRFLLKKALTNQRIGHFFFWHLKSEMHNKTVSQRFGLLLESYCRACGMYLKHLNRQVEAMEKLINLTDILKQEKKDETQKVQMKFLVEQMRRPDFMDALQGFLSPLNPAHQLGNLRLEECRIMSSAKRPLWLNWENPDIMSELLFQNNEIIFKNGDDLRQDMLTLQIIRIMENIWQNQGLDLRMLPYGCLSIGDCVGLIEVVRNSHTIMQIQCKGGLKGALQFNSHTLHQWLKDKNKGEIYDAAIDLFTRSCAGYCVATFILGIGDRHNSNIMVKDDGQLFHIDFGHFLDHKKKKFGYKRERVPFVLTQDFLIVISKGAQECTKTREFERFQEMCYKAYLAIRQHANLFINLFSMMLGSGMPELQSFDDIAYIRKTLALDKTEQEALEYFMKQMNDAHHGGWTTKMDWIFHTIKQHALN
# Chain of PI3Kα (P27986 whole entry partner, species assumed): as the sequence (P27986 whole entry partner, species assumed) above
# PI3Kβ = PI3Kβ (Homo sapiens, UniProt P42338); experiment: In vitro inhibition of PI3Kβ; format: biochemical
# Chain of PI3Kβ (P42338 whole entry, species assumed): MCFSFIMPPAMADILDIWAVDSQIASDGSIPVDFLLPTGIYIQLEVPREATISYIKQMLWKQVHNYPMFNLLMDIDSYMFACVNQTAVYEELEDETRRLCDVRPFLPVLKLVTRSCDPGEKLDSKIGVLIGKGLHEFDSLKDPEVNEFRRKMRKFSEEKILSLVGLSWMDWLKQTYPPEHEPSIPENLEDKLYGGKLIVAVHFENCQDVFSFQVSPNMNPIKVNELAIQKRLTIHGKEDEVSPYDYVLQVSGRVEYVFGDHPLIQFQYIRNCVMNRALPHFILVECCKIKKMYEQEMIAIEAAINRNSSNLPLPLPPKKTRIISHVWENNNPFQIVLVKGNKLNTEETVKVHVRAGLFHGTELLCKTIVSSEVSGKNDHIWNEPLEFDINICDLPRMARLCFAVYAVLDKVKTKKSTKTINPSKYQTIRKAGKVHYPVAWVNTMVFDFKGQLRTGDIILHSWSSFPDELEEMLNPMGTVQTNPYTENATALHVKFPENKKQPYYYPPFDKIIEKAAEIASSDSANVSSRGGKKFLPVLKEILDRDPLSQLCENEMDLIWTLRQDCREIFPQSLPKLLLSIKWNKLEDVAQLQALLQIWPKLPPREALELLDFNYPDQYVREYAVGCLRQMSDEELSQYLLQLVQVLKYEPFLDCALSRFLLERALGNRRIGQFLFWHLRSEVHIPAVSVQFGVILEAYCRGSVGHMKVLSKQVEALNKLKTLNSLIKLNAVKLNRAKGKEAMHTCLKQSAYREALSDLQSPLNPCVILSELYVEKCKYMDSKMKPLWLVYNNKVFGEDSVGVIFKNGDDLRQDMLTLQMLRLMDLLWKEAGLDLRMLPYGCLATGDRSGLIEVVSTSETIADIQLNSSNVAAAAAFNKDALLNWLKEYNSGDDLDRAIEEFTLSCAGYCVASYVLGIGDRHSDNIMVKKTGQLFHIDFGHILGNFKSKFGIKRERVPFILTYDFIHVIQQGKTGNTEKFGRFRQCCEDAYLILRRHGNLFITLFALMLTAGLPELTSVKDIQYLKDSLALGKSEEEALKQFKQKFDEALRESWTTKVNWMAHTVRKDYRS
# Chain of PI3Kβ (P27986 whole entry partner, species assumed): as the sequence (P27986 whole entry partner, species assumed) above
# PI3Kγ = PI3Kγ (Homo sapiens, UniProt P48736); experiment: In vitro inhibition of PI3Kγ; format: biochemical
# Chain of PI3Kγ (P48736 whole entry, species assumed): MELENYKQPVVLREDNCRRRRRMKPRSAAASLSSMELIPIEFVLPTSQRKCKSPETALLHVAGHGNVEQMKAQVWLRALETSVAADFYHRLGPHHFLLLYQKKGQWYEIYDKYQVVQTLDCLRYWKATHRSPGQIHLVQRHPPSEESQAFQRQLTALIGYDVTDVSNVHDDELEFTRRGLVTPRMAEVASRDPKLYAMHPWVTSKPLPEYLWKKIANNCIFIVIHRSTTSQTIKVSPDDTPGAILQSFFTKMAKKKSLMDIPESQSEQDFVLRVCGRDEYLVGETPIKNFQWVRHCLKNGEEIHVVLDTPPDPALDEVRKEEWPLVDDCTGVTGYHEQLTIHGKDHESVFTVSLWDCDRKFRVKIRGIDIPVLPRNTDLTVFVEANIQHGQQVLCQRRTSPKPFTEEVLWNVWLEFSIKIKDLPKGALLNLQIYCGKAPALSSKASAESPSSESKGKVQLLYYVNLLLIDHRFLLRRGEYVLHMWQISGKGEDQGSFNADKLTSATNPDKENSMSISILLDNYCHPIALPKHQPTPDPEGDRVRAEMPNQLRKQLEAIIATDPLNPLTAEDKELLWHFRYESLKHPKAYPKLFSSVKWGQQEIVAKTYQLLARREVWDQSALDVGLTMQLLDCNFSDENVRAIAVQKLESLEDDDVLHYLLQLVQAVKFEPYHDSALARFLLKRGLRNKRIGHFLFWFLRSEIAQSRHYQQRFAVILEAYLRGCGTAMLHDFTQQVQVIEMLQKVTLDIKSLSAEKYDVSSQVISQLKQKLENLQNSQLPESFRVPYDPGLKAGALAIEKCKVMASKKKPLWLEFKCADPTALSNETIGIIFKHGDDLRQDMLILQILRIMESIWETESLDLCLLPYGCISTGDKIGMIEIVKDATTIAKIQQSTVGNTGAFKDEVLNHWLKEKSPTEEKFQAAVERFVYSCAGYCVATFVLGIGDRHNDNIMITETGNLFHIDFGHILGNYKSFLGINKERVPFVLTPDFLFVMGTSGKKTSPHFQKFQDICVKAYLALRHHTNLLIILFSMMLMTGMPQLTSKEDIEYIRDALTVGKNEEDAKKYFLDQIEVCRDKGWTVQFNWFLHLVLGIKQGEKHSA
# [2] = test system: TGFα-transgenic mouse model of idiopathic pulmonary fibrosis (IPF); experiment: Dox-inducible TGFα-transgenic mouse model of idiopathic pulmonary fibrosis; format: in vivo, mice; conditions: 400 mg/kg PO, 3 week follow up CT scan
# Experimental: Treatment of inflammatory-mediated fibrotic diseases were also evaluated using a doxycycline (Dox)-inducible transforming growth factor-α (TGFα)-transgenic mouse model of idiopathic pulmonary fibrosis (IPF) expressing lung-epithelial specific TGFα following Dox administration. […] Weekly lung micro-CT exams were used for assessment of fibrotic burden. Nintenadib (n=5) (100 mg/kg) was also evaluated for comparison. Lung tissue was examined microscopy in a subset of animals at the conclusion of the study.
# [3] = Mesenteric lymph duct cannulation rat model, lymphatic transport (FIG. 8); format: in vivo; conditions: 50 mg/kg intraduodenal, pretreatment with cycloheximide
# Source text: Evaluation of compound mechanism for lymphatic uptake was also undertaken.
# [4] = Plasma and lymphatic tissue levels after single oral dose of ST-168 or PD901, LC-MS/MS (FIG. 3); format: in vivo; conditions: mouse; for Kp at 4 h: lymphatic tissue / plasma, single oral dose in ORA-Plus suspension, 4 hours post-administration, read-out: lymphatic/plasma ratio
# Experimental: LC-MS/MS quantification of drug concentrations in mouse tissues over time following a single oral dose is shown. FIG. 3 contains block diagrams for formulations in ORA-Plus liquid particulate suspension: FIG. 3A compound ST-168 levels at 4 hours in plasma and lymphatic tissue versus the MEK inhibitor PD0325901 (henceforth referred to as PD901). FIG. 3B ST-168 time dependence in plasma and lymphatic tissue, and formulated in Maisine, FIG. 3C ST-168 time dependence in plasma and lymphatic tissue following 100 mg/kg dose.
# In FIG. 3, LC-MS/MS quantification of drug concentrations in mouse tissues over time are shown following a single oral suspension dose of ST-168 delivered in ORA-Plus®. ORA-Plus is an aqueous-based vehicle (ORA-Plus Product Data Sheet available at Perrigo Company's website) containing a synergistic blend of suspending agents having a high degree of colloidal activity. The suspending agents form a structured, gel-like matrix which suspends particles and allow for little settling. ORA-Plus is buffered to a slightly acidic pH to help reduce degradation of medicinal agents through oxidation. The ORA-Plus contains purified water, microcrystalline cellulose, carboxymethylcellulose sodium, xanthan gum, carrageenan, calcium sulfate, trisodium phosphate, citric acid and sodium phosphate as buffers and dimethicone antifoam emulsion, preserved with methylparaben and potassium sorbate. […] Any compound delivered in ORA-Plus is distributed to the plasma and lymphatic system based upon the physiochemical properties of the drug. Thus, the formulation itself only serves to provide for a suspension of drug particulates and dissolution of drug will be based upon water solubility.
# This is an important distinction showing that Compound ST-168 has lymphatic absorptive properties because ORA-Plus is not a long chain fatty acid like Maisine. […] Data presented in FIGS. 3A through 3D reveal that the mEG linker technology for chemical coupling with drugs produces solubility properties consistent with formulation and bioavailability required for drug-like pharmaceutical characteristics and improved lymphatic absorption.
# [5] = ADME studies of ST-168 in mice; format: in vivo
# Source text: (§1) ADME (absorption, distribution, metabolism, and excretion) studies of ST-168 have shown that ST-168 is bioavailable following administration in mice.
# A375 xenografts = experiment: Tumor growth inhibition in melanoma xenograft model (FIG. 5C); format: in vivo, nude mice; conditions: for tumor growth: 400 mg/kg oral once daily, initial 30 days
# Experimental: as §1
# (§2) In FIG. 5A, a two-dimensional assessment of ST-162 and ST-168. […] In FIG. 5B, assessment of dead cells in 3D melanoma spheroids post-treatment with ST-162 and ST-168. A375 melanoma spheroids were treated for 72 h with 20 μM each of ST-162 or ST-168 before staining with Calcein AM and ethidium homodimer-1 for fluorescent microscopy (live/dead viability assay, Molecular Probes). Green fluorescence indicates live cells, and red fluorescence indicates dead cells. Images were obtained with an Olympus IX70 fluorescent microscope using the SPOT advance program. In FIG. 5C tumor growth inhibition by ST-162 and ST-168 in a melanoma xenograft model. Tumor implantation consisted of inoculation of 5×10^6 A375 cells suspended in 100 μL of media into the flank of nude mice. Treatment was initiated once tumors reached >100 mm^3. Mice were randomized into two treatment groups and treated once daily with either vehicle (200 μL of OraPlus) or 400 mg/kg each of ST-162 or ST-168 by oral gavage until sacrifice (42 days). Changes in tumor growth of A375 xenografts were assessed by conducting MRI imaging twice per week. Tumor volume changes between ST-162 and ST-168 treatment were determined to be statistically significant (p<0.05) using an unpaired Student's t test at the last time point. Experimental design: n=4-6 tumors/treatment group.
# pERK1/2 and pAKT = experiment: Immunoblot of treated A375 melanoma cells (FIG. 5A); format: cell-based, human; conditions: 1 h, 20 μM
# Experimental: as §1
# as §2, with “Mice were randomized into two treatment groups and treated once daily with either vehicle (200 μL of OraPlus) or 400 mg/kg each of ST-162 or ST-168 by oral gavage until sacrifice (42 days).” left out, “Experimental design: n=4-6 tumors/treatment group.” left out
# [6] = Tolerance in colorectal, glioma and melanoma mouse xenograft models; format: in vivo; conditions: 400 mg/kg orally, suspended in ORA-Plus, glioma, melanoma xenograft models
# Source text: as §1
# MEK1 = MEK1 (Homo sapiens, UniProt Q02750); experiment: In vitro inhibition of MEK1; format: biochemical
# Class 1 PI3K isoforms = conditions: read-out: selectivity towards the Class 1 PI3K isoforms; cited from earlier work
# mTOR = mTOR (Homo sapiens, UniProt P42345); experiment: In vitro inhibition of mTOR; format: biochemical; conditions: Table 10B, inhibitory activity, unit inferred
# [7] = mouse, mesenteric lymph node / plasma, read-out: lymph/plasma ratio
# [8] = Table 14, read-out: IC50 (nM) PI3Kδ
# [9] = Table 14, read-out: IC50 (nM) PI3Kα
# [10] = Table 14, read-out: IC50 (nM) PI3Kβ
# [11] = Table 14, read-out: IC50 (nM) PI3Kγ
# [12] = Table 10B, inhibitory activity, unit inferred, read-out: PI3Kα
# [13] = Table 10B, inhibitory activity, unit inferred, read-out: PI3Kβ
# [14] = Table 10B, inhibitory activity, unit inferred, read-out: PI3Kγ
# [15] = Table 10B, inhibitory activity, unit inferred, read-out: PI3Kδ
smiles,measurement,setting,value
O=C(NCCCCCCCCCCCNC(=O)c1cccc2ccccc12)c1cccc2ccccc12 [Compound 4],Kp at 4 h,[1]; [7],~6
NOCCOCCOCCOCCN(CCO)c1nc(N2CCOCC2)nc(-n2c(C(F)F)nc3ccccc32)n1 [ST-5-46],IC50,PI3Kδ; [8],8.6 ± 1.2 nM
same,IC50,PI3Kα; [9],10.9 ± 0.7 nM
same,IC50,PI3Kβ; [10],1080 ± 143 nM
same,IC50,PI3Kγ; [11],137 ± 21 nM
O=C(NOCCOCCOCCOCCC(=O)N1CCN(c2cnc3ccc(-c4cnc(Cl)c(NS(=O)(=O)c5ccc(F)cc5)c4)cc3n2)CC1)c1ccc(F)c(F)c1Nc1ccc(I)cc1F [ST-182],reversal of lung fibroproliferative disease and pleural thickness (CT),[2],strong activity for reversal
same,transport into the lymphatics after cycloheximide pretreatment,[3],significantly reduced
"O=C(NOC[C@H](O)CO)c1ccc(F)c(F)c1Nc1ccc(I)cc1F [Compound 901, reference compound]",Kp at 4 h,[4],~1.2
O=C(NCCOCCOCCOCCNC(=O)c1cccc2ccccc12)c1cccc2ccccc12 [Compound 3],Kp at 4 h,[1]; [7],~5
NOCCOCCOCCOCCNc1nc(N2CCOCC2)nc(-n2c(C(F)F)nc3ccccc32)n1 [ST-5-50],IC50,PI3Kδ; [8],12.6 ± 1 nM
same,IC50,PI3Kα; [9],89.3 ± 9.5 nM
same,IC50,PI3Kβ; [10],1870 ± 245 nM
same,IC50,PI3Kγ; [11],502 ± 20 nM
O=C(NOCCOCCOCCOCCC(=O)N1CCN(c2nc(N3CCOCC3)nc(-n3c(C(F)F)nc4ccccc43)n2)CC1)c1ccc(F)c(F)c1Nc1ccc(I)cc1F [ST-168],bioavailability following administration,[5],bioavailable
same,"in vivo activity for suppression of MEK1/PI3K kinase activities in solid tumors, compared to ST-162","A375 xenografts; 400 mg/kg oral gavage once daily, A375 xenografts",superior in vivo activity
same,tumor growth,A375 xenografts,tumor stasis
same,IC50,PI3Kα; [12],69.2 ± 2.2 nM
same,Kp at 4 h,[4],~120
same,partitioning between lymphatic/plasma over time,[4]; single oral dose of 400 mg/kg in ORA-Plus,maintained over a 24 hour time period
same,lymphatic uptake (tissue concentration levels),"[4]; single oral doses of 100 mg/kg and 400 mg/kg in Maisine, 2, 4, and 24 hour",extraordinarily high lymphatic uptake
same,IC50,PI3Kβ; [13],1480 ± 377 nM
same,reversal of lung fibroproliferative disease and pleural thickness (CT),[2],strong activity for reversal
same,down regulation of pERK1/2 and pAKT in cells,pERK1/2 and pAKT,down regulate
same,IC50,PI3Kγ; [14],2290 ± 241 nM
same,tolerance / observed toxicities,[6],no observed toxicities
O=C(NOCCOCCOCCOCCNc1nc(N2CCOCC2)nc(-n2c(C(F)F)nc3ccccc32)n1)c1ccc(F)c(F)c1Nc1ccc(F)cc1F [ST-6-02],IC50,PI3Kδ; [8],236 ± 29 nM
same,IC50,MEK1,124 ± 11 nM
same,IC50,PI3Kα; [9],130 ± 13 nM
same,IC50,PI3Kβ; [10],1540 ± 188 nM
same,IC50,PI3Kγ; [11],2740 ± 485 nM
COc1ccc(-c2ccc3c(N4CCOC[C@H]4C)nc(N4CCOC[C@H]4C)nc3n2)cc1CO [AZD 8055],IC50,Class 1 PI3K isoforms,> 1 µM
CC(=O)N(C)CCNc1nc(N2CCOCC2)nc(-n2c(C(F)F)nc3ccccc32)n1 [ST-5-31],IC50,PI3Kδ; [8],11.7 ± 2.2 nM
same,IC50,PI3Kα; [9],10.3 ± 1 nM
same,IC50,PI3Kβ; [10],404 ± 63 nM
same,IC50,PI3Kγ; [11],55.2 ± 11.5 nM
O=C(NCCCCCCCCCCCNC(=O)c1ccccc1)c1ccccc1 [Compound 2],"concentrations in tissues tested, compared to Compound 1","[1]; plasma, mesenteric lymph node, fat",much lower concentrations in all tissues tested
same,Kp,"[1]; mouse, mesenteric lymph node / plasma, between time points 0.5, 2, and 4 hours, read-out: lymph/plasma ratios",3 to 5
O=C(NOCCOCCOCCOCCN(CCO)c1nc(N2CCOCC2)nc(-n2c(C(F)F)nc3ccccc32)n1)c1ccc(F)c(F)c1Nc1ccc(I)cc1F [ST-5-47],IC50,PI3Kδ; [8],137 ± 7 nM
same,IC50,MEK1,352 ± 2 nM
same,IC50,PI3Kα; [9],107 ± 21 nM
same,IC50,PI3Kβ; [10],3880 ± 725 nM
same,IC50,PI3Kγ; [11],2570 ± 364 nM
O=C(NOCCOCCOCCOCCN1CCN(c2nc(N3CCOCC3)nc(-n3c(C(F)F)nc4ccccc43)n2)CC1)c1ccc(F)c(F)c1Nc1ccc(I)cc1F [ST-162],IC50,PI3Kδ; [15],942 ± 120 nM
same,tumor growth,A375 xenografts,tumor stasis
same,IC50,PI3Kα; [12],191 ± 64 nM
same,down regulation of pERK1/2 and pAKT in cells,pERK1/2 and pAKT,down regulate
OCCN(CCO)c1nc(N2CCOCC2)nc(-n2c(C(F)F)nc3ccccc32)n1 [ST-5-32],IC50,PI3Kδ; [8],9.9 ± 0.4 nM
same,IC50,PI3Kα; [9],3.74 ± 1 nM
same,IC50,PI3Kβ; [10],74 ± 5.7 nM
same,IC50,PI3Kγ; [11],14.6 ± 1.4 nM
O=C(NCCOCCOCCOCCNC(=O)c1ccccc1)c1ccccc1 [Compound 1],Kp at 0.5 h,"[1]; mouse, mesenteric lymph node / plasma, 0.5 hours, read-out: lymph/plasma ratio",~0.6
same,Kp at 4 h,[1]; [7],~1
same,concentration at 4 h,"[1]; mouse, mesenteric lymph node, read-out: lymphatic concentration",~0.085 µg/mL
same,concentration at 4 h,"[1]; mouse, plasma, read-out: plasma concentration",~0.095 µg/mL
CN(C)CCN(CCO)c1nc(N2CCOCC2)nc(-n2c(C(F)F)nc3ccccc32)n1 [ST-5-44],IC50,PI3Kδ; [8],46.7 ± 3.3 nM
same,IC50,PI3Kα; [9],148 ± 22 nM
same,IC50,PI3Kβ; [10],627 ± 174 nM
same,IC50,PI3Kγ; [11],869 ± 11 nM
CN(C)C1CCN(C(=O)c2ccc(NC(=O)Nc3ccc(-c4nc(N5CCOCC5)nc(N5CCN(C(=O)CCOCCOCCOCCONC(=O)c6ccc(F)c(F)c6Nc6ccc(I)cc6F)CC5)n4)cc3)cc2)CC1 [ST-185],IC50,PI3Kδ; [15],55.3 ± 3.9 nM
same,IC50,PI3Kα; [12],42.3 ± 4 nM
same,IC50,PI3Kβ; [13],1620 ± 442 nM
same,IC50,mTOR,0.0504 ± 0.0042 µM
same,IC50,PI3Kγ; [14],325 ± 78 nM
COCCN(CCO)c1nc(N2CCOCC2)nc(-n2c(C(F)F)nc3ccccc32)n1 [ST-6-01],IC50,PI3Kδ; [8],8.9 ± 0.5 nM
same,IC50,PI3Kα; [9],5.1 ± 1.1 nM
same,IC50,PI3Kβ; [10],136 ± 6.4 nM
same,IC50,PI3Kγ; [11],30.7 ± 0.9 nM
O=C(O)CCOCCOCCOCCONC(=O)c1ccc(F)c(F)c1Nc1ccc(I)cc1F [MV6-8],IC50,MEK1,72.3 ± 1.9 nM

# Source: US11311624B2, “Inhibitors of MEK/PI3K, JAK/MEK, JAK/PI3K/mTOR and MEK/PI3K/mTOR biological pathways and methods for improving lymphatic uptake, bioavailability, and solubility of therapeutic compounds” (THE REGENTS OF THE UNIVERSITY OF MICHIGAN, priority 2017, dated 2022)
